This is an account of results in US12660819B2, “Herbicidal derivatives” (SYNGENTA CROP PROTECTION AG, priority 2020, dated 2026).

Format in all cases: in vivo
Assay [1] concerns Setaria faberi (SETFA). The assay can be described thus: Pre-emergence Test (glasshouse, percentage damage to the plant). The following applies: 1000 g/ha unless otherwise stated, five-point scale.
The subject of assay [2] is Lolium perenne (LOLPE). The description is as above. The conditions noted are these: 1000 g/ha unless otherwise stated, five-point scale.
The test system of assay [3] is Amaranthus retoflexus (AMARE). The assay is described as above. The conditions noted are these: 1000 g/ha unless otherwise stated, five-point scale.
In assay [4] the test system is Solanum nigrum (SOLNI). The assay is described as above. The conditions noted are these: 1000 g/ha unless otherwise stated, five-point scale.
The subject of assay [5] is Echinochloa crus-galli (ECHCG). The description is as above. The conditions noted are these: 1000 g/ha unless otherwise stated, five-point scale.
Assay [6] deals with Ipomoea hederacea (IPOHE). The assay is described as above. The conditions noted are these: 1000 g/ha unless otherwise stated, five-point scale.
Assay [7] relates to Ipomoea hederacea (IPOHE). The assay can be described thus: Post-emergence Test (glasshouse, percentage damage to the plant). The following applies: post-emergence spray, 1000 g/ha unless otherwise stated, evaluated after 13 days. The gist of the method: (§1)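 Seeds sown in pots in glasshouse (24/16 °C day/night, 14 h light, 65% humidity), then sprayed with compound at 1000 g/ha unless stated, from acetone/water 50:50 with 0.5% Tween 20. Damage assessed 13 days later on five-point scale (1=0–20% to 5=81–100%).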

Assay [8] has as its system Amaranthus retoflexus (AMARE). Described as above. The conditions noted are these: post-emergence spray, 1000 g/ha unless otherwise stated, evaluated after 13 days. The gist of the method: (§2)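 Damage was rated 13 days after treatment and expressed on a five-point scale: 5=81-100%, 4=61-80%, 3=41-60%, 2=21-40%, 1=0-20%. Spray was applied at 1000 g/ha unless otherwise stated, from acetone/water (50:50) with 0.5% Tween 20, to sown pots.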

Assay [9] relates to Setaria faberi (SETFA). The assay is described as above. The conditions noted are these: post-emergence spray, 1000 g/ha unless otherwise stated, evaluated after 13 days. The gist of the method:
as §1

For assay [10], the system named is Solanum nigrum (SOLNI). The assay is described as above. The following applies: post-emergence spray, 1000 g/ha unless otherwise stated, evaluated after 13 days. In a few lines:
as §2

The subject of assay [11] is Echinochloa crus-galli (ECHCG). The assay is described as above. The conditions noted are these: post-emergence spray, 1000 g/ha unless otherwise stated, evaluated after 13 days. In a few lines:
as §2

For assay [12], the system named is Lolium perenne (LOLPE). The assay is described as above. The conditions noted are these: post-emergence spray, 1000 g/ha unless otherwise stated, evaluated after 13 days. In a few lines: as §2

Turning to `CCn1c(C)c(-c2ccccn2)c(=O)c(C(=O)O)c1-c1ccc(Cl)c(Cl)c1.Cl` [Compound 28, 2-(3,4-dichlorophenyl)-1-ethyl-6-methyl-4-oxo-5-pyridin-1-ium-2-yl-pyridine-3-carboxylic acid;chloride], the “percentage damage to the plant, SETFA” value in the assay on Setaria faberi (SETFA) [1] was 1 (1=0-20%). Also, the “percentage damage to the plant, LOLPE” value with Lolium perenne (LOLPE) [2] is recorded as 1 (1=0-20%). For the same compound, in assay [3], the “percentage damage to the plant, AMARE” value was 1 (1=0-20%). In addition, the “percentage damage to the plant, SOLNI” value with Solanum nigrum (SOLNI) [4] is 2 (2=21-40%). In assay [5], the “percentage damage to the plant, ECHCG” value is reported as 1 (1=0-20%). Further, the “percentage damage to the plant, IPOHE” value in assay [6] is 3 (3=41-60%). In assay [7], the “Post-emergence Test IPOHE, percentage damage to the plant (five-point scale)” value was 4 (4=61-80%). The “Post-emergence Test AMARE, percentage damage to the plant (five-point scale)” value in [8] is reported as 2 (2=21-40%). Moreover, in the assay with Setaria faberi (SETFA) [9], the “Post-emergence Test SETFA, percentage damage to the plant (five-point scale)” value is given as 3 (3=41-60%). For the same compound, the “Post-emergence Test SOLNI, percentage damage to the plant (five-point scale)” value in the assay with Solanum nigrum (SOLNI) [10] is reported as 3 (3=41-60%). For the same compound, the “Post-emergence Test ECHCG, percentage damage to the plant (five-point scale)” value in assay [11] is reported as 2 (2=21-40%). In addition, the “Post-emergence Test LOLPE, percentage damage to the plant (five-point scale)” value in the assay with Lolium perenne (LOLPE) [12] is reported as 2 (2=21-40%).
For the compound `CCn1c(C)c(-c2ccc(F)cc2)c(=O)c(C(=O)O)c1-c1ccc(Cl)c(Cl)c1` [Compound 11, 2-(3,4-dichlorophenyl)-1-ethyl-5-(4-fluorophenyl)-6-methyl-4-oxo-pyridine-3-carboxylic acid], the “percentage damage to the plant, SETFA” value in the assay on Setaria faberi (SETFA) [1] was 5 (5=81-100%). Moreover, the “percentage damage to the plant, LOLPE” value in the assay with Lolium perenne (LOLPE) [2] is listed as 1 (1=0-20%). In addition, the “percentage damage to the plant, AMARE” value in assay [3] is on record as 5 (5=81-100%). Moreover, the “percentage damage to the plant, SOLNI” value with Solanum nigrum (SOLNI) [4] is on record as 5 (5=81-100%). Also, the “percentage damage to the plant, ECHCG” value in assay [5] is given as 5 (5=81-100%). Besides, the “percentage damage to the plant, IPOHE” value in assay [6] is on record as 2 (2=21-40%). In addition, the “Post-emergence Test IPOHE, percentage damage to the plant (five-point scale)” value in [7] was 4 (4=61-80%). In assay [8], the “Post-emergence Test AMARE, percentage damage to the plant (five-point scale)” value was 4 (4=61-80%). The “Post-emergence Test SETFA, percentage damage to the plant (five-point scale)” value in the assay on Setaria faberi (SETFA) [9] is 4 (4=61-80%). Further, the “Post-emergence Test SOLNI, percentage damage to the plant (five-point scale)” value with Solanum nigrum (SOLNI) [10] was 5 (5=81-100%). The “Post-emergence Test ECHCG, percentage damage to the plant (five-point scale)” value in assay [11] is on record as 4 (4=61-80%). Moreover, in the assay on Lolium perenne (LOLPE) [12], the “Post-emergence Test LOLPE, percentage damage to the plant (five-point scale)” value is listed as 2 (2=21-40%).
